According to article PMC5114424, “The Role of Folate Transport in Antifolate Drug Action in Trypanosoma brucei” (The Journal of Biological Chemistry, 2016):

Key:
Type in all cases: cell-based, Trypanosoma brucei brucei
FT1–3 (TbFT1–3) [1] = system: T1, FT1–3 (TbFT1–3); assay: inhibition of [3H]folate uptake, whole cells; conditions: 2.0 μM folate ([S] ≅ Km); pH 7.3; read-out: IC50 against folate
T1 construct: native transporters in intact bloodstream-form trypanosomes; 12 predicted transmembrane helices; uptake assigned by RNAi knockdown of all three
Source text: inhibition of [3H]folate uptake, whole cells on FT1–3 (TbFT1–3)

FT1–3 (TbFT1–3) [2] = system: T1, FT1–3 (TbFT1–3); assay: inhibition of [3H]MTX uptake, whole cells, Lineweaver-Burk / global fit; conditions: competitive with MTX; folate 0, 0.5, 1 μM; pH 7.3
FT1–3 (TbFT1–3) [3] = system: T1, FT1–3 (TbFT1–3); assay: inhibition of [3H]MTX uptake, whole cells; conditions: 13 μM MTX ([S] ≅ Km); pH 7.3; read-out: IC50 against MTX
Source text: inhibition of [3H]MTX uptake, whole cells on FT1–3 (TbFT1–3)

FT1–3 (TbFT1–3) [4] = system: T1, FT1–3 (TbFT1–3); assay: [3H]folic acid uptake, whole cells; conditions: transport, 23 °C, pH 7.3; labelled compound
Source text: [3H]folic acid uptake, whole cells on FT1–3 (TbFT1–3) | Uptake rates for folate obeyed simple Michaelis-Menten kinetics (Fig. 2D) yielding a Km of […]

FT1–3 (TbFT1–3) [5] = system: T1, FT1–3 (TbFT1–3); assay: [3H]MTX uptake, whole cells; conditions: transport, 23 °C, pH 7.3; labelled compound
FT1–3 (TbFT1–3) [6] = system: T1, FT1–3 (TbFT1–3); assay: inhibition of [3H]folate uptake, whole cells, Lineweaver-Burk / global fit; conditions: competitive with folate; MTX 0, 0.5, 1 μM; pH 7.3

| Structure (SMILES) | IC50 (FT1–3 (TbFT1–3) [1]) [nM] | further results |
| --- | --- | --- |
| CN1c2c(nc(N)[nH]c2=O)NC[C@@H]1CNc1ccc(C(=O)N[C@@H](CCC(=O)O)C(=O)O)cc1 [5-methyl-THF] | 6300 ± 1000 | – |
| Nc1nc2ncc(CNc3ccc(C(=O)N[C@@H](CCC(=O)O)C(=O)O)cc3)nc2c(=O)[nH]1 [folate] | – | Ki (FT1–3 (TbFT1–3) [2]): 940 ± 210 nM; IC50 (FT1–3 (TbFT1–3) [3]): 1900 ± 400 nM; Km (FT1–3 (TbFT1–3) [4]): 2.04 ± 0.53 µM |
| CN(Cc1cnc2nc(N)nc(N)c2n1)c1ccc(C(=O)N[C@@H](CCC(=O)O)C(=O)O)cc1 [methotrexate] | 3400 ± 400 | Km (FT1–3 (TbFT1–3) [5]): 18.4 ± 2.2 µM; Ki (FT1–3 (TbFT1–3) [6]): 480 ± 70 nM |
| Nc1ccc(C(=O)N[C@@H](CCC(=O)O)C(=O)O)cc1 [pABA-Glu] | 30800 ± 3700 | – |
| Nc1nc(=O)c2c(CCc3ccc(C(=O)N[C@@H](CCC(=O)O)C(=O)O)cc3)c[nH]c2[nH]1 [pemetrexed] | 3200 ± 300 | – |
| Cc1nc2ccc(CN(C)c3ccc(C(=O)N[C@@H](CCC(=O)O)C(=O)O)s3)cc2c(=O)[nH]1 [raltitrexed] | 1800 ± 400 | – |
